Assay results as given in PubChem BioAssay (NCI).
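Interpolation was linear, between the two tested concentrations surrounding the appropriate level; five concentrations were tested over 48 hours in 96-well plates. At the GI50, growth is halved. TGI marks complete inhibition of growth.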

Legend:
Test in all cases: NCI-60 cell line screen, 48 h
[1] = system: OVCAR-5 ovarian
[2] = system: NCI-H522 lung
[3] = system: NCI-H23 lung
[4] = system: MOLT-4 leukemia
[5] = system: SF-295 CNS
[6] = system: SK-MEL-28 melanoma
[7] = system: OVCAR-8 ovarian
[8] = system: A498 renal
[9] = system: SW-620 colon
[10] = system: TK-10 renal

Structure (SMILES)	GI50 [1] [µM]	TGI [1] [µM]	GI50 [2] [µM]	TGI [2] [µM]	GI50 [3] [µM]	TGI [3] [µM]	GI50 [4] [µM]	TGI [4] [µM]	GI50 [5] [µM]	TGI [5] [µM]	GI50 [6] [µM]	TGI [6] [µM]	GI50 [7] [µM]	TGI [7] [µM]	GI50 [8] [µM]	TGI [8] [µM]	GI50 [9] [µM]	TGI [9] [µM]	GI50 [10] [µM]	TGI [10] [µM]
Nc1ccccc1C#C/C=C\C#Cc1ccccc1	15.5	51.6	4.72	20.5	14.8	35.9	13.3	> 100	11.3	31.8	11.7	27.1	48	> 100	15.3	31.1	19.3	41.7		
Cc1c(C(=O)NCCN2CCOCC2)cn2ncnc(Oc3ccc(NC(=O)Nc4ccc(Cl)c(C(F)(F)F)c4)cc3)c12			1.76	4.23			0.433	2.6	1.77	3.34	1.06	2.39	3.1	> 100	1.6	3.08				
O=C(O)c1ccc2c(c1)CCCC(c1ccc(Cl)cc1Cl)=C2c1ccc(O[C@H]2CCN(CCCF)C2)cc1	17.4	32.1			13.2	29.3	8.62	24.2	7.86	20.5	11.5	25.1	13.5	33.7	11.5	24.6	14.3	28.9	13.4	27.6
CCCCN(CCCC)c1c([N+](=O)[O-])c(=O)nc2ccccn12		> 100		36.4		> 100		> 100				54		94.6		48.2		> 100		85
COC(=O)c1nc(Cl)nc(Cl)c1Cl		52.3		36.5		> 100		32.9		> 100		56.9		54.5				38.5		47.8
OCCNc1ncnc2c1ncn2Cc1cccc(COc2cccc(OCc3cccc(Cn4cnc5c(NCCO)ncnc54)c3)c2)c1	20.2	36.8	12.5	31.8			11.8	32.4	13	31.8	14.6	28.4	18.5	38.1	14.9	28.9	11.8	24.9	14.7	29.9
C/C=C/C=C/C=C/C=C/C(=O)O		> 100		> 100		> 100		> 100		> 100		> 100		> 100		> 100		> 100		
COc1cc(-c2cn(-c3ccc(Cl)c(Cl)c3)c(=O)n2C(C)=O)cc(OC)c1OC	13	27.3	13.3	30			14.7	31.6	1.53	5.79	11.6	29.6	8.49	31.9	16.6	32.1	12.9	29.8	12.2	31
